According to patent US11590091B2, “Fixed dose composition of paracetamol: amitriptyline and method for the treatment of mixed cancer pain” (CENTRO DE INVESTIGACIÓN Y DESARROLLO DE MEDICAMENTOS CIDEM, priority 2018, dated 2023):
Where two headings read alike, the source gives them in different places.

Assays:
[1] = test system: CCI-induced Wallerian degeneration-related changes in rat sciatic nerve; experiment: Histopathological study of sciatic nerve sections (Wallerian degeneration) in CCI rats; conditions: GBP as positive control, 14 days post-CCI
[2] = test system: mechanical hypernociception in the ipsilateral hindpaw of CCI rats; experiment: Sciatic nerve chronic constriction injury (CCI) model, mechanical hypernociception (electronic von Frey); format: in vivo, rat (Sprague Dawley); conditions: for MPE, intensity of mechanical hypernociception: day 14 post-CCI; for ED30, mechanical hypernociception: oral repeated doses, CCI rats, unit not given
From the text: (§1) The favorable results at a single dose in phase II of this algesymmetric test provide evidence that allows us to move towards a neuropathic pain model to study the possible combination at repeated doses. […] The CCI model has a high sensitivity (88%) for the prediction of efficacy in controlled clinical trials (Kontinen, V K and Meert, T F 2003. In: Dostrovsky, J O, Carr, D B, Koltzenburg, M. editors. the 10th World Congress on Pain, Seattle: IASP Press, p. 489-98). Once the model was reproduced, the threshold of removal of the injured hindpaw was measured by the stimulation with the von Frey filaments (mechanical allodynia) and by the stimulation with an electronic von Frey (mechanical hypernociception). The measurements were performed under baseline conditions and at 7 days post-CCI (hyperalgesic peak in the model), at which time the experimental groups were conformed (n=6-7 per group) to proceed with the dose-response curve study of amitriptyline. In this way, establish the ED30 or ED50 depending on the % of maximum possible effect (MPE) produced by the drug to reduce each of the sensory symptoms of neuropathic pain reproduced by the model (Jensen, T S and Baron, R. 2003. Pain 102: 1-8). Gabapentin, a common drug in its treatment, was used as a reference. CCI-vehicle group (distilled water 10 mL/kg, p.o.), amitriptyline groups (0.5, 1.5, 3, 10 mg/kg, p.o., AMT), gabapentin group (50 mg/kg, p.o., GBP); Sham CCI Group (distilled water 10 mL/kg, p.o.) The daily supply was given at repeated doses for 7 days until 14 days post-CCI, at which time another evaluation of the variables was performed. […] The experimental groups were formed for the dose-response curve study of paracetamol: CCI-vehicle group (distilled water 10 mL/kg, p.o.), Paracetamol groups (25, 50, 100, 200 mg/kg, p.o., P), Gabapentin group (50 mg/kg, p.o., GBP), CCI Sham Group (distilled water 10 mL/kg, p.o.). These doses of paracetamol have not been associated with liver or kidney damage in rats. […] To execute the dose-response curve mapping, the withdrawal thresholds after the treatments were converted into % of MPE. [Mechanical allodynia: MPE %=(post-treatment threshold−pre-treatment threshold)/(15 g-pre-treatment threshold)×100; Mechanical hypernociception: MPE % (Δ g post-treatment−Δ g pre-treatment)/50−Δ g pre-treatment)×100]. Subsequently, the same design was executed with the four doses of the combination calculated from the theoretical effective dose of each drug, this was calculated for each variable depending on the ED50 or ED30 according to the drug's capacity to obtain 50% or more of MPE that is 100% assumed as the total suppression of mechanical allodynia and mechanical hypernociception induced by CCI. […] In addition, concerning to the hypernociception intensity, the MPE values: 0.5 mg/kg=2.55%, 1.5 mg/kg=16.07% (p<0.05), 3 mg/kg=35.43% (p<0.001), 10 mg/kg=44.95% (p<0.001) vs GBP 50 mg/kg=63.47% (p<0.001), ED30=3.1032 (FIG. 8B). Amitriptyline inhibited both alterations of nociceptive processing but the potency of its effect was in the following order: mechanical allodynia>mechanical hypernociception. In neuropathic pain models there are controversies regarding the observation of the mechanical antiallodynic effect of amitriptyline. […] The result was similar in the model of spared neural injury (SNI), instead it reversed the responses to stimuli induced by chemical irritants induced by ATP and capsaicin, stimuli that are transmitted by the C fibers that express P2X and TRPV1 receptors and that are also involved in the transmission of thermal stimuli.

[3] = test system: mechanical allodynia in the ipsilateral hindpaw of CCI rats; experiment: Sciatic nerve chronic constriction injury (CCI) model, mechanical allodynia (von Frey filaments), with isobolographic analysis; format: in vivo, rat (Sprague Dawley); conditions: for MPE, mechanical allodynia: day 14 post-CCI; for ED50: Rattus norvegicus
From the text: as §1

[4] = test system: licking/biting behavior after injection of 2.5% formalin in the plantar surface of the rat's paw; experiment: Formalin test (persistent pain model), licking/biting behavior, with isobolographic analysis; format: in vivo, rat (Sprague Dawley); conditions: for percentage of inhibition of phase II (% antinociception) / ED30 for the inhibition of phase II (experimental): single dose; for percentage of inhibition of phase II (% antinociception): 2.5% formalin; for Oral administration ED30: formalin test, dose producing 30% reduction of control response, mean ± SD of the estimate; for ED30 for the inhibition of phase II (experimental): oral, phase II of formalin test, unit not given
From the text: In the present invention referred to the combination paracetamol:amitriptyline, the pharmacodynamic rationality was based on the knowledge of the actions of both drugs on the nociceptive pathways considering the multiple sites and mechanisms operating on specific targets, as well as their adverse effects and pharmacokinetic variables. […] This responds to the need for the use of integral systems in which peripheral activity, spinal transmission, modulating systems and suprasegmental systems of the active global network that leads to the perception of pain can interact (Raffa, R B et al., 2010. J Pain 11: 701-709). The experiments were designed in young rats (8-10 weeks, Sprague Dawley, males, 168-240 g, CENPALAB, Havana, Cuba) and divided into several groups n=6-7 each, which received increasing doses of both drugs independent and combinations, to evaluate the effect as a percentage (%) of antinociception at single doses in the formalin test compared to the vehicle-treated group. This test is considered a standard persistent pain model for the study of animal nociception, widely used (Okuda, K. et al., 2001. Pain 92: 107-15). A biphasic nociceptive behavior has been described in this test, the first phase or nociceptive is interpreted as a consequence of the direct activation of the peripheral endings of the nociceptors by the chemical irritant. While the second, tonic or late phase is interpreted as the result of the acute inflammatory response, as well as the peripheral and central sensitization produced by the sustained activation of C fibers (Coderre, T J et al., 1990. Brain Res. 535: 155-8). This phase mimics the changes in synaptic plasticity that occur during persistent pain that could progress to chronicity, which is why it received the greatest attention in our experiments. The period between the two phases of the response is identified as a phase of latency in which the activity diminishes or practically ceases, this effect being attributed to the participation of the mechanisms of central endogenous pain modulation (Dubuisson, D. and, Dennis, S G 1977. Pain 4: 161-74; Omote, K. et al., 1998. Brain Res. 814: 194-8). The time course of the antinociceptive response to individual drugs and combinations was constructed by mapping the mean time of the licking/biting as a function of the time of each phase. These values were transformed into percentage of antinociception that express the percentage of inhibition of the behavior with respect to the control of the particular phase according to the formula: % antinociception=((x−x1)/x)*100. Where X=average time of licking/bite of the control group treated with vehicle, X1=time of licking/biting of each animal of the experimental group (for phase I licking time in 5 minutes, for phase II average of the time of 15 to 45 minutes per animal). In the case that X1 was greater than X, a value of 0 was assigned to % antinociception. A value close to 0% means that the behavior is similar to that of the control group and a value close to 100% means that there was no nocidefensive behavior (Argelles, C. F. et al., 2002. Anesthesiology 96: 921-5). The antihyperalgesic effect of amitriptyline has been recognized in neural damage conditions. […] One of the proposals to explain these discrepancies has been the ability of amitriptyline to increase serotonergic signaling, which has multiple subtypes of receptors, some low and others with high affinity, with heterogeneous and even opposite actions distributed at different levels of the nociceptive pathways. […] However, 5-HT2A and 5-HT3, 5-HT4 and 5-HT7 localized pre-synaptically facilitate it. […] As a consequence, the most integrated licking/biting behavior was recorded and doses of amitriptyline (0.1, 1, 3, 10 mg/kg, p.o., AMT) were used for the dose-response curve study (FIG. 1). […]

[5] = Behavioral safety pharmacological tests (rota-rod, tone, posture, righting reflex, general state); format: in vivo, rat (Sprague Dawley); conditions: repeated minor doses (0.5-10 mg/kg p.o.) in the CCI model
Description: The rotating rod or rota-rod test was executed. The apparatus consists of a bar with a diameter of 2.5 cm divided into 4 compartments. The bar rotated at a constant speed of 22 rpm and the time it took for the animals to fall from the bar was evaluated. The animals were evaluated 1 h after the supply. The cut-off time used was 60 seconds. In addition, the tone, posture, righting reflex, corneal, vital signs and general state of the animal were explored from 30 minutes to 3 hours post-administration of the drugs separately and the combination. The corneal and tympanic reflex were explored by the tip of a thin paper to stimulate the cornea or auditory canal and the rapid response of opening and closing of the eyes or the mobilization of the ears in normal animals was observed. The evaluation of the posture and the righting reflex was based on the scale of Devor and Zalkind. Scale for posture: 0=normal posture, grooming supported on its hind legs; 1=moderate atony and ataxia, supports its weight, but can not rest on its hind legs; 2=supports its weight, but ataxia is severe; 3=maintains muscle tone, but can not support its weight, only small movements of intention; 4=atony, flaccidity, totally immobilized, no efforts to mobilize.

[6] = 0.5 mg/kg p.o. daily for 7 days
[7] = 1.5 mg/kg p.o. daily for 7 days
[8] = po, CCI model, dose producing 50% reduction of control response, table values mean ± SD of the estimate, read-out: Oral administration ED50 (antiallodynic, experimental)
[9] = oral repeated doses, CCI rats, unit inferred, read-out: ED50, mechanical allodynia
[10] = 100 mg/kg p.o. daily for 7 days
[11] = 200 mg/kg p.o. daily for 7 days

SMILES: NCC1(CC(=O)O)CCCCC1 [GBP, gabapentin]
- Wallerian degeneration alterations in sciatic nerve (qualitative) [1]: show a decrease in these alterations
- MPE, intensity of mechanical hypernociception ([2]; 50 mg/kg p.o. daily for 7 days): 63.47%
- MPE, mechanical allodynia ([3]; 50 mg/kg p.o. daily for 7 days): 60.66%

SMILES: CN(C)CCC=C1c2ccccc2CCc2ccccc21 [Amitriptyline, amitriptyline]
- percentage of inhibition of phase II (% antinociception) ([4]; 0.1 mg/kg p.o., phase II (15-45 min)): −11.38%
- percentage of inhibition of phase II (% antinociception) ([4]; 1 mg/kg p.o., phase II): 57.35%
- percentage of inhibition of phase II (% antinociception) ([4]; 3 mg/kg p.o., phase II): 55.56%
- percentage of inhibition of phase II (% antinociception) ([4]; 10 mg/kg p.o., phase II): 62.24%
- inhibitory effect on phases of the formalin test ([4]; doses 0.1, 1, 3, 10 mg/kg p.o.): significant inhibitory effect was observed exclusively on phase II
- licking/biting response in both phases ([4]; doses of 20, 25, 50 and 100 mg/kg): a significant dose-dependent inhibitory response pattern was not observed
- Oral administration ED30 [4]: 0.66 ± 0.41 mg/kg
- ED30 for the inhibition of phase II (experimental) [4]: 0.6677
- MPE, intensity of mechanical hypernociception [2, 6]: 2.55%
- MPE, intensity of mechanical hypernociception [2, 7]: 16.07%
- MPE, intensity of mechanical hypernociception ([2]; 3 mg/kg p.o. daily for 7 days): 35.43%
- MPE, intensity of mechanical hypernociception ([2]; 10 mg/kg p.o. daily for 7 days): 44.95%
- intensity of mechanical hypernociception ([2]; dose of 1.5 (p<0.01), 3 and 10 mg/kg (p<0.001) p.o., repeated 7 days): significantly reduced the intensity of mechanical hypernociception
- ED30, mechanical hypernociception [2]: 3.1032
- MPE, mechanical allodynia [3, 6]: 0.96%
- MPE, mechanical allodynia [3, 7]: 1.31%
- MPE, mechanical allodynia ([3]; 3 mg/kg p.o. daily for 7 days): 58.75%
- MPE, mechanical allodynia ([3]; 10 mg/kg p.o. daily for 7 days): 65.97%
- ED50 [3, 8]: 4.54 ± 2.28 mg/kg
- ED50 [3, 9]: 4.54 mg/kg
- withdrawal thresholds of the damaged paw to von Frey filaments stimulation ([3]; doses of 3 and 10 mg/kg p.o., repeated 7 days (p<0.05)): increased the withdrawal thresholds
- signs of sedation or catalepsy [5]: no signs of sedation or catalepsy

SMILES: CC(=O)Nc1ccc(O)cc1 [Paracetamol, paracetamol]
- percentage of inhibition of phase II (% antinociception) ([4]; 50 mg/kg p.o., phase II): 38.08%
- percentage of inhibition of phase II (% antinociception) ([4]; 100 mg/kg p.o., phase II): 65.73%
- percentage of inhibition of phase II (% antinociception) ([4]; 200 mg/kg p.o., phase II): 74.24%
- effect on phase I of the formalin test ([4]; 300 mg/kg p.o. (printed 'the dose higher than 300 mg/kg')): significantly reduced phase I
- percentage of inhibition of phase II (% antinociception) ([4]; 300 mg/kg p.o., phase II): 87.78%
- effect on phase II of the formalin test ([4]; all doses used: 50, 100, 200, 300 mg/kg p.o.): significantly reduced phase II
- Oral administration ED30 [4]: 32.35 ± 7.85 mg/kg
- ED30 for the inhibition of phase II (experimental) [4]: 32.3578
- MPE, intensity of mechanical hypernociception ([2]; 25 mg/kg p.o. daily for 7 days): 31.79%
- MPE, intensity of mechanical hypernociception ([2]; 50 mg/kg p.o. daily for 7 days): 35.05%
- MPE, intensity of mechanical hypernociception [2, 10]: 42.42%
- MPE, intensity of mechanical hypernociception [2, 11]: 48.37%
- mechanical antihypernociceptive effect ([2]; 25, 50, 100 (p<0.01) and 200 mg/kg (p<0.001) p.o., similar to GBP): mechanical antihypernociceptive effect in a dose-dependent manner
- efficacy to reduce the intensity of mechanical hypernociception, 300 mg/kg versus 200 mg/kg ([2]; doses of 300 mg/kg compared with 200 mg/kg): less efficacy
- ED30, mechanical hypernociception [2]: 22.5725
- MPE, mechanical allodynia ([3]; 25 mg/kg p.o. daily for 7 days): 25.65%
- MPE, mechanical allodynia ([3]; 50 mg/kg p.o. daily for 7 days): 60.96%
- MPE, mechanical allodynia [3, 10]: 75.49%
- MPE, mechanical allodynia [3, 11]: 75.45%
- ED50 [3, 8]: 47.5 ± 14.1 mg/kg
- ED50 [3, 9]: 47.5 mg/kg
- antiallodynic effect ([3]; doses 25, 50, 100, 200 mg/kg p.o., repeated 7 days (p<0.05)): significant antiallodynic effect from doses of 50 mg/kg
